The text below walks through data of patent EP0137689B1, “GRF analogs” (THE SALK INSTITUTE FOR BIOLOGICAL STUDIES, priority 1983, dated 1986).

The subject of the experiment is cells of rat pituitary glands. The experiment can be described thus: in vitro growth hormone release assay in rat pituitary cell cultures (ir GH measured by radioimmunoassay). The format is cell-based. To be noted: for intrinsic biological activity / potency: in equimolar ratios, side-by-side comparison with synthetic hGRF(1-44)-NH2, incubation 3 to 4 hours, GH release; for intrinsic activity / specific activity: multiple doses factorial design experiments; for intrinsic activity: compared with hGRF(1-44)-NH2; for specific activity: relative to hGRF(1-44)-NH2. As for the experimental part: To determine the effectiveness of the peptide to promote the release of growth hormone, in vitro assays are carried out using synthetic hGRF(1-44)-NH2 in side-by-side comparison with pGRF(1-44)-NH2 and of a GRF Reference Standard having a known effectiveness to promote the release of growth hormone from pituitary cells. The GRF Reference standard is described and defined in Brazeau, et al., Endocrinology, Vol. 110 A538 (1982) and is an amount of a preparation of rat hypothalamic origin that produces a half- maximal response in terms of GH release in a pituitary cell monolayer bioassay. Cultures are used which include cells of rat pituitary glands removed some four to five days previously. Both cultures of a defined standard medium and cultures which are considered optimal for the secretion of growth hormone are used for the comparative testing, in the general manner described in Brazeau, et al. Regulatory Peptides, 1, 255, 1981. Incubation with the substance to be tested is carried out for 3 to 4 hours, and aliquots of the culture medium are removed and processed to measure their contents in inmunoreactive GH(ir GH) by a well- characterized radioimmunoassay.
To determine the effectiveness of the peptide to promote the release of growth hormone, in vito assays are carried out using synthetic hGRF(1―44)-NH2 in side-by-side comparison with equimolar concentrations of bGRF(1―44)-NH2, as set forth hereinbefore in Example II.
To determine the effectiveness of the peptide to promote the release of growth hormone, in vitro assays are carried out using synthetic hGRF(1―44)-NH2 in side-by-side comparison with equimolar concentrations of the synthetic oGRF(1-44)-NH2 of Example V as set forth hereinbefore in Example II.

`CC[C@H](C)[C@H](NC(=O)[C@H](C)NC(=O)[C@H](CC(=O)O)NC(=O)[C@H](C)NC(=O)[C@@H](N)Cc1ccc(O)cc1)C(=O)N[C@@H](Cc1ccccc1)C(=O)N[C@H](C(=O)N[C@@H](CC(N)=O)C(=O)N[C@@H](CO)C(=O)N[C@@H](Cc1ccc(O)cc1)C(=O)N[C@@H](CCCNC(=N)N)C(=O)N[C@@H](CCCCN)C(=O)N[C@H](C(=O)N[C@@H](CC(C)C)C(=O)NCC(=O)N[C@@H](CCC(N)=O)C(=O)N[C@@H](CC(C)C)C(=O)N[C@@H](CO)C(=O)N[C@@H](C)C(=O)N[C@@H](CCCNC(=N)N)C(=O)N[C@@H](CCCCN)C(=O)N[C@@H](CC(C)C)C(=O)N[C@@H](CC(C)C)C(=O)N[C@@H](CCC(N)=O)C(=O)N[C@@H](CC(=O)O)C(=O)N[C@H](C(=O)N[C@@H](CCSC)C(=O)N[C@@H](CC(N)=O)C(=O)N[C@@H](CCCNC(=N)N)C(=O)N[C@@H](CCC(N)=O)C(=O)N[C@@H](CCC(N)=O)C(=O)NCC(=O)N[C@@H](CCC(=O)O)C(=O)N[C@@H](CCCNC(=N)N)C(=O)N[C@@H](CC(N)=O)C(=O)N[C@@H](CCC(N)=O)C(=O)N[C@@H](CCC(=O)O)C(=O)N[C@@H](CCC(N)=O)C(=O)NCC(=O)N[C@@H](C)C(=O)N[C@@H](CCCCN)C(=O)N[C@H](C(=O)N[C@@H](CCCNC(=N)N)C(=O)N[C@@H](CC(C)C)C(N)=O)C(C)C)[C@@H](C)CC)C(C)C)[C@@H](C)O` [bGRF(1-44)-NH2]: the intrinsic biological activity result is reported as “full intrinsic biological activity”, the potency result is given as “close to the same potency”, the intrinsic activity entry is recorded as “same intrinsic activity” and the specific activity entry is given as “about 70 % of hGRF(1-44)-NH2”.

`CC[C@H](C)[C@H](NC(=O)[C@H](C)NC(=O)[C@H](CC(=O)O)NC(=O)[C@H](C)NC(=O)[C@@H](N)Cc1ccc(O)cc1)C(=O)N[C@@H](Cc1ccccc1)C(=O)N[C@H](C(=O)N[C@@H](CC(N)=O)C(=O)N[C@@H](CO)C(=O)N[C@@H](Cc1ccc(O)cc1)C(=O)N[C@@H](CCCNC(=N)N)C(=O)N[C@@H](CCCCN)C(=O)N[C@H](C(=O)N[C@@H](CC(C)C)C(=O)NCC(=O)N[C@@H](CCC(N)=O)C(=O)N[C@@H](CC(C)C)C(=O)N[C@@H](CO)C(=O)N[C@@H](C)C(=O)N[C@@H](CCCNC(=N)N)C(=O)N[C@@H](CCCCN)C(=O)N[C@@H](CC(C)C)C(=O)N[C@@H](CC(C)C)C(=O)N[C@@H](CCC(N)=O)C(=O)N[C@@H](CC(=O)O)C(=O)N[C@H](C(=O)N[C@@H](CCSC)C(=O)N[C@@H](CC(N)=O)C(=O)N[C@@H](CCCNC(=N)N)C(=O)N[C@@H](CCC(N)=O)C(=O)N[C@@H](CCC(N)=O)C(=O)NCC(=O)N[C@@H](CCC(=O)O)C(=O)N[C@@H](CCCNC(=N)N)C(=O)N[C@@H](CC(N)=O)C(=O)N[C@@H](CCC(N)=O)C(=O)N[C@@H](CCC(=O)O)C(=O)N[C@@H](CCC(N)=O)C(=O)NCC(=O)N[C@@H](C)C(=O)N[C@@H](CCCCN)C(=O)N[C@H](C(=O)N[C@@H](CCCNC(=N)N)C(=O)N[C@@H](CC(C)C)C(N)=O)C(C)C)[C@@H](C)CC)[C@@H](C)CC)[C@@H](C)O` [oGRF(1-44), H-Tyr-Ala-Asp-Ala-lle-Phe-Thr-Asn-Ser-Tyr-Arg-Lys-lle-Leu-Gly-Gln-Leu-Ser-Ala-Arg-Lys-Leu-Leu-Gln-Asp- lle-Met-Asn-Arg-Gln-Gln-Gly-Glu-Arg-Asn-Gln-Glu-Gln-Gly-Ala-Lys-Val-Arg-Leu-NH2]: the intrinsic biological activity result is listed as “full intrinsic biological activity”, the potency result is “close to the same potency”, the intrinsic activity result is on record as “about the same intrinsic activity” and the specific activity result is recorded as “about 70 % of hGRF(1-44)-NH2”.

Consider `CC[C@H](C)[C@H](NC(=O)[C@H](C)NC(=O)[C@H](CC(=O)O)NC(=O)[C@H](C)NC(=O)[C@@H](N)Cc1ccc(O)cc1)C(=O)N[C@@H](Cc1ccccc1)C(=O)N[C@H](C(=O)N[C@@H](CC(N)=O)C(=O)N[C@@H](CO)C(=O)N[C@@H](Cc1ccc(O)cc1)C(=O)N[C@@H](CCCNC(=N)N)C(=O)N[C@@H](CCCCN)C(=O)N[C@H](C(=O)N[C@@H](CC(C)C)C(=O)NCC(=O)N[C@@H](CCC(N)=O)C(=O)N[C@@H](CC(C)C)C(=O)N[C@@H](CO)C(=O)N[C@@H](C)C(=O)N[C@@H](CCCNC(=N)N)C(=O)N[C@@H](CCCCN)C(=O)N[C@@H](CC(C)C)C(=O)N[C@@H](CC(C)C)C(=O)N[C@@H](CCC(N)=O)C(=O)N[C@@H](CC(=O)O)C(=O)N[C@H](C(=O)N[C@@H](CCSC)C(=O)N[C@@H](CO)C(=O)N[C@@H](CCCNC(=N)N)C(=O)N[C@@H](CCC(N)=O)C(=O)N[C@@H](CCC(N)=O)C(=O)NCC(=O)N[C@@H](CCC(=O)O)C(=O)N[C@@H](CCCNC(=N)N)C(=O)N[C@@H](CC(N)=O)C(=O)N[C@@H](CCC(N)=O)C(=O)N[C@@H](CCC(=O)O)C(=O)N[C@@H](CCC(N)=O)C(=O)NCC(=O)N[C@@H](C)C(=O)N[C@@H](CCCNC(=N)N)C(=O)N[C@H](C(=O)N[C@@H](CCCNC(=N)N)C(=O)N[C@@H](CC(C)C)C(N)=O)C(C)C)[C@@H](C)CC)C(C)C)[C@@H](C)O` [pGRF(1-44)-NH2], for which the intrinsic biological activity result is given as “full intrinsic biological activity” and the potency result was “close to the same potency”.
